Reference: patent US9005670B2, “Use of histone acetyltransferase inhibitors as novel anti-cancer therapies” (The Johns Hopkins University, priority 2010, dated 2015)
“Also recorded” adds a separate entry of the source.

Columns and labels:
p300 HAT = target: T1, p300 HAT (Homo sapiens, UniProt Q09472, DEL1529-1560/M1652G); assay: direct radioactive p300 HAT assay (14C-acetyl-CoA transfer to H4-15); type: biochemical
T1 construct: A variant of the HAT domain of p300 (residues 1287 to 1652) was expressed as a fusion; a C-terminal peptide corresponding to residues 1653-1666 of p300; made in house; host or cells: E. coli BL21(RIL)-DE3; C-terminal peptide by solid phase synthesis
T1 sequence (Q09472 with tags, fused parts or gaps DEL1529-1560/M1652G limits assumed): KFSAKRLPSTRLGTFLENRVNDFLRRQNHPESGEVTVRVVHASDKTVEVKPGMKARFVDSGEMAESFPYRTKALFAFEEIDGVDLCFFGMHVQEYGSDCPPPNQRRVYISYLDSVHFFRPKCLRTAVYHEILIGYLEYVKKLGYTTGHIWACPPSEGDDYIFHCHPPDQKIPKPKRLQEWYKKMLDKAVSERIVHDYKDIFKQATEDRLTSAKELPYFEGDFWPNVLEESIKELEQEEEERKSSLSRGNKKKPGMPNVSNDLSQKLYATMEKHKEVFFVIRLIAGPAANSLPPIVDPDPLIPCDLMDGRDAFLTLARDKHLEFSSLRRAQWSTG
Protocol: In this assay, production of ^14C-labeled Ac-H4-15 is monitored electrophoretically. Reactions were performed in 20 mM HEPES, pH 7.9, and contained 5 mM DTT, 80 μM EDTA, 40 μg/mL BSA, 100 μM H4-15, and 5 nM p300. […] Reactions were incubated at 30° C. for 10 minutes, initiated with addition of a 1:1 mixture of 12 C-acetyl-CoA and 14 C-acetyl-CoA to a final concentration of 20 μM, and allowed to run for 10 min at 30° C. Reactions are then quenched with addition of 14% SDS (w/v). Turnover was kept below 10%. All compounds were screened in duplicate. Samples were then loaded onto a 16% Tris-Tricine gel along with a BSA standard and run at 140 V for 90 minutes. Gels were washed and dried, and exposed in a PhosphorImager cassette for ˜2 days. Bands corresponding to Ac-H4-15 were then quantified using ImageQuant.
Reactions were performed in 20 mM HEPES, pH 7.9, and contained 5 mM DTT, 80 μM EDTA, 40 μg/mL BSA, 100 μM […], and 5 nM p300. Putative inhibitors were added over a range of concentrations, with DMSO concentration kept constant (<5%). Reactions were incubated at 30° C. for 10 minutes, then initiated with addition of a 1:1 mixture of ^12C-acetyl-CoA and ^14C-acetyl-CoA to 20 μM. After […] at 30° C., reactions were quenched with 14% SDS (w/v). All concentrations were screened in duplicate. Gels were run, washed, dried, and exposed to a PhosphorImager plate as described above, and production of Ac-H4-15 quantified. Data were fit to the following equation to obtain IC50s. […]

[1] = system: histone H3 and H4 acetylation in C3H 10T1/2 mouse fibroblasts; assay: histone acetylation Western blot in mouse cells; type: cell-based
Source text: Histones in mammalian cells show characteristic rates of turnover of acetylation, with a majority showing slower rates and a very minor fraction showing very fast turnover. This latter fraction has been associated with gene activation, and is defined by rapid hyperacetylation in the presence of deacetylase inhibitors such as Trichostatin A (TSA). In addition to SDS gels (FIG. 9A), Acid-Urea gels (AU, FIG. 9B) were used, on which loss of a positive charge upon lysine acetylation retards migration, producing a ladder of bands corresponding to integral changes in acetylation.
C3H 10T1/2 mouse fibroblasts were grown in DMEM with 10% FCS at 37° C. with 5% CO2. Confluent cultures were rendered quiescent in DMEM with 0.5% FCS for 18-20 h prior to treatment. […] Antibodies were used at the following concentrations: total H3 (1:10000; ab7834; Abcam); H4K12ac (1:2500; 06-761; Upstate). Rabbit anti-H3K9ac (1:10000) antibodies were generated in-house. Histones were isolated from cells by acid extraction, separated by SDS and acid-urea polyacrylamide gel electrophoresis and analyzed by Western blotting.

WM983A melanoma cells = assay: 3H-thymidine incorporation, WM983A; settings: 20 μM, 24 hours
Mel-1 melanoma cells = assay: combination with chemotherapy, total cell number; type: cell-based; settings: 48 hours
Protocol: The cells were grown for 24 hours in medium. The cells were given fresh medium and either 1 μM of cisplatin or 200 μM of temozolamide was added. Total cell number was counted on Day 0, at 24 hours, and 48 hours after addition of cisplatin or temozolamide.
After 24 hours, the treated and mock-treated cells were given fresh medium, and the cells were treated with cisplatin or temozolamide for 48 hours.

[2] = cells pre-treated with 2 μM C646 for 24 hours, then 1 μM cisplatin or 200 μM temozolamide
[3] = mock-treated cells, 1 μM cisplatin or 200 μM temozolamide

Row | Structure (SMILES) | p300 HAT inhibition, result in words (analogs compared with C646) (p300 HAT) | melting point [°C] | other results
1 | CC1=NN(c2ccc(C(=O)O)cc2)C(=O)C1Cc1ccc(-c2cc(C)c(C)cc2[N+](=O)[O-])o1 (stereo not drawn) [Compound C37, 4-{4-[5-(4,5-Dimethyl-2-nitro-phenyl)-furan-2-ylmethyl]-3-methyl-5-oxo-4,5-dihydro-pyrazol-1-yl}-benzoic acid] | does not detectably block p300 HAT activity; also recorded: did not detectably block p300 HAT activity; also recorded: devoid of p300 HAT inhibitory activity | – | acetylation of H3 or H4, with and without TSA ([1]; 25 μM, 3 hours): no effect; sensitivity of cell line to compound (WM983A melanoma cells): resistant
2 | N.N.[Cl][Pt][Cl] [cisplatin] | – | – | decrease in cell number (Mel-1 melanoma cells; [2]): 28%; decrease in cell number (Mel-1 melanoma cells; [3]): 35%
3 | COC(=O)c1ccc(N2N=C(C)C(=Cc3ccc(-c4cc(C)c(C)cc4[N+](=O)[O-])o3)C2=O)cc1 [Compound 6h, Methyl 4-(4,5-dihydro-3-methyl-4-((5-(4,5-dimethyl-2-nitrophenyl)furan-2-yl)methylene)-5-oxopyrazol-1-yl)benzoate] | – | 214 to 216 | weakening of p300 inhibitory potency compared with C646 (relative IC50) (p300 HAT; range of concentrations): > 15 fold
4 | CC1=NN(c2ccc(C(=O)O)cc2)C(=O)/C1=C\c1ccc(-c2cc(C)c(C)cc2CO)o1 [Compound 6l, 4-(4,5-dihydro-4-((5-(2-(hydroxymethyl)-4,5-dimethylphenyl)-furan-2-yl)methylene)-3-methyl-5-oxopyrazol-1-yl)benzoic acid] | substantial reduction in potency | 209 to 211 | –
5 | CC1=NN(c2ccc(C(=O)O)cc2)C(=O)/C1=C\c1ccc(-c2cc(C)c(C)cc2C#N)o1 [Compound 6o, 4-(4,5-dihydro-4-((5-(4,5-dimethyl-2-benzonitrile)furan-2-yl)methylene)-3-methyl-5-oxopyrazol-1-yl)-benzoic acid] | well tolerated | 295 to 297 | –
6 | CC1=NN(c2cccc(C(=O)O)c2)C(=O)C1=Cc1ccc(-c2cc(C)c(C)cc2[N+](=O)[O-])o1 [Compound 6e, 3-(4,5-dihydro-3-methyl-4-((5-(4,5-dimethyl-2-nitrophenyl)furan-2-yl)methylene)-5-oxopyrazol-1-yl)benzoic acid] | well tolerated | 260 to 262 | –
7 | Cn1nnc2c(C(N)=O)ncn2c1=O [temozolamide] | – | – | decrease in cell number (Mel-1 melanoma cells; [2]): 31%; decrease in cell number (Mel-1 melanoma cells; [3]): 13%
8 | CC(/C=C/C(=O)NO)=C\[C@@H](C)C(=O)c1ccc(N(C)C)cc1 [TSA, Trichostatin A, reference compound] | – | – | acetylation of H3 and H4 ([1]; TSA 33 nM, 30 minutes): increased
9 | COC(=O)c1cc(C)c(C)cc1-c1ccc(/C=C2/CC(=O)N(c3ccc(C(=O)O)cc3)C2=O)o1 [Compound 6r, 2-{5-[1-(4-Carboxy-phenyl)-2,5-dioxo-pyrrolidin-3-ylidenemethyl]-furan-2-yl}-4,5-dimethyl-benzoic acid methyl ester] | retains potency for p300 inhibition | 290 to 291 | –
